What was measured:
OC43 [1] = type: cell-based, human betacoronavirus (OC43); conditions: OC43, MRC5
SARS-CoV-2 [2] = assay: SARS-CoV-2 RNA accumulation in MRC5-ACE2 cells; type: cell-based, SARS-CoV-2 isolate Hong Kong/VM20001061/2020
OC43 [3] = assay: OC43 viral RNA accumulation in MRC5 cells; type: cell-based, human betacoronavirus (OC43); conditions: MRC5, OC43, 24 hpi
SARS-CoV-2 [4] = conditions: SOLIDARITY trial, ref Pan et al., 2020; cited from earlier work
[5] = cited from earlier work; for maximal accumulation in plasma: healthy patients given remdesivir, ref Jorgensen et al.; for maximal accumulation in plasma / concentration in bronchoalveolar aspirates: 2020; for concentration in bronchoalveolar aspirates: remdesivir treated COVID-19 patients, ref Pan et al.
OC43 [6] = conditions: for effect of co-treatment on IC50 of remdesivir against OC43-induced CPE: co-treatment with remdesivir, 5 μM lapatinib or 10 μM doramapimod
3CLpro [7] = conditions: ref Ghahremanpour et al., 2020; cited from earlier work
3CLpro [8] = conditions: 2020, cited from earlier work
SARS-CoV-2 [9] = assay: SARS-CoV-2-induced cytopathic effect in MRC5-ACE2 cells; type: cell-based
SARS-CoV-2 N protein = SARS-CoV-2 N protein accumulation in MRC5-ACE2 cells; type: cell-based
SARS-CoV-2 [10] = type: cell-based
SARS-CoV-2 [11] = conditions: ref Dittmar et al., 2021; cited from earlier work
[12] = lapatinib, human patients, ref Spector et al., 2015

C#Cc1cccc(Nc2ncnc3cc(OCCOC)c(OCCOC)cc23)c1 [erlotinib]
identified as hit in the screen (OC43 [1]): not identified

C=CCNC1=C2C[C@@H](C)C[C@H](OC)[C@H](O)[C@@H](C)/C=C(\C)[C@H](OC(N)=O)[C@@H](OC)/C=C\C=C(/C)C(=O)NC(=CC1=O)C2=O [17-AAG]
SARS-CoV-2 RNA accumulation (SARS-CoV-2 [2]): only minimally reduced SARS-CoV-2 RNA accumulation
dose blocking OC43 viral RNA accumulation relative to remdesivir (fold less) (OC43 [3]): ~10 fold

CCC(CC)COC(=O)[C@H](C)N[P@](=O)(OC[C@H]1O[C@@](C#N)(c2ccc3c(N)ncnn23)[C@H](O)[C@@H]1O)Oc1ccccc1 [remdesivir]
clinical effectiveness (SARS-CoV-2 [4]): not clinically effective
maximal accumulation in plasma [5]: 4 to 9 µM
concentration in bronchoalveolar aspirates [5]: not detectable
IC50 of remdesivir against OC43-induced CPE (OC43 [6]; remdesivir alone, MRC5): in the μM range

CS(=O)(=O)CCNCc1ccc(-c2ccc3ncnc(Nc4ccc(OCc5cccc(F)c5)c(Cl)c4)c3c2)o1 [lapatinib]
in silico molecular docking result (3CLpro [7]): putative inhibitor of the SARS-CoV-2 protease, 3CLpro
inhibition of 3CLpro activity (3CLpro [8]; pre-print, ref Drayman et al.): could, in fact, inhibit the activity of 3CLpro
inhibition of 3CLpro (experimental) (3CLpro [8]; ref Ghahremanpour et al.): did not inhibit 3CLpro
concentration in tissue samples [5, 12]: 8000 to 12000 nM
plasma concentration in human patients [5, 12]: 1000 to 3000 nM
SARS-CoV-2 RNA accumulation (SARS-CoV-2 [2]): dramatic reduction in viral RNA accumulation
dose of remdesivir required to abolish SARS-CoV-2 RNA accumulation (SARS-CoV-2 [2]): dramatically reduce the dose of remdesivir required
inhibition of SARS-CoV-2 RNA replication (SARS-CoV-2 [2]): over 50,000 fold
SARS-CoV-2-induced CPE (SARS-CoV-2 [9]): blocked SARS-CoV-2-induced CPE
SARS-CoV-2 N protein accumulation (SARS-CoV-2 N protein): completely prevented SARS-CoV-2 N protein accumulation
effect of co-treatment on IC50 of remdesivir against OC43-induced CPE (OC43 [6]): reduced the IC50 of remdesivir into the sub-μM range
dose of remdesivir required to abolish production of infectious virions (SARS-CoV-2 [10]): dramatically reduce the dose of remdesivir required

Cc1ccc(-n2nc(C(C)(C)C)cc2NC(=O)Nc2ccc(OCCN3CCOCC3)c3ccccc23)cc1 [doramapimod]
SARS-CoV-2 RNA accumulation (SARS-CoV-2 [2]): able to block SARS-CoV-2 RNA accumulation at a low μM concentration
dose of remdesivir required to abolish SARS-CoV-2 RNA accumulation (SARS-CoV-2 [2]): dramatically reduce the dose of remdesivir required
SARS-CoV-2-induced CPE (SARS-CoV-2 [9]): blocked SARS-CoV-2-induced CPE
SARS-CoV-2 N protein accumulation (SARS-CoV-2 N protein): completely prevented SARS-CoV-2 N protein accumulation
effect of co-treatment on IC50 of remdesivir against OC43-induced CPE (OC43 [6]): reduced the IC50 of remdesivir into the sub-μM range
dose of remdesivir required to abolish production of infectious virions (SARS-CoV-2 [10]): dramatically reduce the dose of remdesivir required

N#C[C@@]1(c2ccc3c(N)ncnn23)O[C@H](CO)[C@@H](O)[C@H]1O [GS-441524]
maximal accumulation in plasma [5]: about 0.5 μM
concentration in bronchoalveolar aspirates [5]: ~15 nM

COc1cc2ncnc(Nc3ccc(F)c(Cl)c3)c2cc1OCCCN1CCOCC1 [gefitinib]
identified as hit in the screen (OC43 [1]): not identified

CCN(CCO)CCCC(C)Nc1ccnc2cc(Cl)ccc12 (stereo not drawn) [hydroxychloroquine]
activity against SARS-CoV-2 in human lung epithelial cell lines (SARS-CoV-2 [11]): ineffective
clinical effectiveness (SARS-CoV-2 [4]): not clinically effective
